Type in all cases: functional, cell-based
Common to all, as to details: Homo sapiens, T-cell

Assay [1] in a line: Inhibitory activity, for stimulation of TNF-alpha release in gamma-delta T cells, using a constrained maximum TNF-alpha release of 2700 pg/mL.
The nature of assay [2]: Inhibitory activity, for stimulation of TNF-alpha release in gamma-delta T cells, using individual observed maximum TNF-alpha release.
Assay [3] can be described thus: pIC50 value for stimulation of TNF-alpha release in gamma-delta T cells, using a constrained maximum TNF-alpha release of 2700 pg/mL.
The nature of assay [4]: pIC50 value for stimulation of TNF-alpha release in gamma-delta T cells, using individual observed maximum TNF-alpha release.

As to `NCCC(O)(P(=O)(O)O)P(=O)(O)O` [PAMIDRONIC ACID], the concentration for half-maximal inhibition (IC50) in assay [1] was 941 µM; in assay [2], 62 µM; in assay [3], 933 µM; in assay [4] it was 61.7 µM.

As for `NCCCCC(O)(P(=O)(O)O)P(=O)(O)O`, the IC50 was 213 µM in assay [1], 102 µM in assay [2], 214 µM in assay [3] and 102 µM in assay [4].

On to `O=P(O)(O)C(Nc1cccnc1)P(=O)(O)O`, for which the IC50 is 24 µM in assay [1], 14 µM in assay [2], 24 µM in assay [3] and 14.5 µM in assay [4].

In the case of `CCCCCCCCCNC(P(=O)(O)O)P(=O)(O)O` [(NONYLAMINO)METHYLENEDIPHOSPHONIC ACID], the IC50 in assay [1] is 169 µM; in assay [2], 66 µM; in assay [3], 170 µM; in assay [4], 66.1 µM.

Take `O=P(O)(O)C(N1CCCCC1)P(=O)(O)O`: the IC50 was 122 µM in assay [1], 66 µM in assay [2], 120 µM in assay [3] and 66.1 µM in assay [4].

As to `O=P(O)(O)C(O)(Cc1ccncc1)P(=O)(O)O`, the IC50 was 21 µM in assay [1], 22 µM in assay [2], 20.9 µM in assay [3] and 21.4 µM in assay [4].

Regarding `O=P(O)(O)C(NC1CCCCCC1)P(=O)(O)O` [INCADRONIC ACID], the IC50 in assay [1] is 15 µM; in assay [2] it was 11 µM; in assay [3], 14.8 µM; in assay [4], 11.5 µM.

Turning to `CCC(C)CNC(P(=O)(O)O)P(=O)(O)O` (stereo not given), the half-inhibitory concentration (IC50) in assay [1] was 19 µM; in assay [2], 9 µM; in assay [3] it was 19.5 µM; in assay [4], 8.91 µM.

Turning to `O=P(O)(O)C(Nc1ccccn1)P(=O)(O)O`, the IC50 was 16 µM in assay [1], 7.4 µM in assay [2], 15.5 µM in assay [3] and 7.41 µM in assay [4].

For the molecule `NCCCCCC(O)(P(=O)(O)O)P(=O)(O)O` [NERIDRONIC ACID], the half-maximal inhibitory concentration (IC50) was 503 µM in assay [1], 1.96 µM in assay [2], 501 µM in assay [3] and 195 µM in assay [4].

For the origin of these results see ChEMBL document CHEMBL1148380, “Quantitative structure-activity relationships for gammadelta T cell activation by bisphosphonates” (J Med Chem, 2004).
